Values quoted from earlier work, collected in US20100056546A1, “SULFONYLUREA INHIBITORS OF ATP-SENSITIVE POTASSIUM CHANNELS” (Auspex Pharmaceuticals, Inc., priority 2008, published 2010).

Details: compared with glipizide; Ambrogi et al. 1972

Row | Structure (SMILES) | activity relative to the parent compound
1 | Cc1cnc(C(=O)NCCc2ccc(S(=O)(=O)NC(=O)N[C@H]3CCC[C@@H](O)C3)cc2)cn1 (relative stereo) [cis-3-hydroxy-glipizide] | significantly less active
2 | Cc1cnc(C(=O)NCCc2ccc(S(=O)(=O)NC(=O)N[C@H]3CC[C@H](O)CC3)cc2)cn1 [trans-4-hydroxy-glipizide] | significantly less active
